Test results published in paper PMC7037682, “Herb–Drug Interaction of Red Ginseng Extract and Ginsenoside Rc with Valsartan in Rats” (Molecules, 2020).
Read-outs that look alike come from different tables or passages of the source.

Columns and labels:
OATP1B3 = target: T1, OATP1B3 (Homo sapiens, UniProt Q9NPD5); experiment: Inhibition of OATP1B3-mediated [3H]estradiol-17β-D-glucuronide uptake in HEK293-OATP1B3 cells
T1 sequence (Q9NPD5 1-702): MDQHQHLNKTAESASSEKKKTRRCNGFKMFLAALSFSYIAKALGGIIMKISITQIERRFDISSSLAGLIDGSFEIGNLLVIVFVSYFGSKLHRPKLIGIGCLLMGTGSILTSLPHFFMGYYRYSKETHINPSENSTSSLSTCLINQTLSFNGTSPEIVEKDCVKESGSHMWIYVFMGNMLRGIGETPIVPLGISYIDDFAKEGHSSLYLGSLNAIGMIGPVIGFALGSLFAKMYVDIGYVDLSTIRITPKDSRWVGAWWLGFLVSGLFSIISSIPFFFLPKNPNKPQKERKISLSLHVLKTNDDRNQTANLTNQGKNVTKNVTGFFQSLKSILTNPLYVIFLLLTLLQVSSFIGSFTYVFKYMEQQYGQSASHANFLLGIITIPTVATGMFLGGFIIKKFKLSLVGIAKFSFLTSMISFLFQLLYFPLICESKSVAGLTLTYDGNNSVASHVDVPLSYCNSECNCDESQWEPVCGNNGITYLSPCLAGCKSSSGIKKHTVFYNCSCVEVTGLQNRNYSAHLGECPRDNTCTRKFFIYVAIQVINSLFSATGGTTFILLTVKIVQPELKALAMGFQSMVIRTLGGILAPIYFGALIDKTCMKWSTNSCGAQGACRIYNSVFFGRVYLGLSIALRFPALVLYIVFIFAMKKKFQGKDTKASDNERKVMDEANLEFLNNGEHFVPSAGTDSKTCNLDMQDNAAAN
Experimental: (§1) HEK293 cells overexpressing the OCT1, OCT2, OAT1, OAT3, OATP1B1, and OATP1B3 transporters (HEK293-OCT1, -OCT2, -OAT1, -OAT3, -OATP1B1, and -OATP1B3, respectively) and HEK293-mock cells (Corning Life Sciences; Woburn, MA, USA) were used and characterized as previously described.
(§2) HEK293 cells overexpressing drug transporters and HEK293-mock cells were seeded in poly-D-lysine-coated 96-well plates at a density of 10^5 cells/well and were cultured in DMEM supplemented with 10% FBS, 5 mM non-essential amino acids, and 2 mM sodium butyrate in a humidified atmosphere with 8% CO2 at 37 °C.
(§3) To examine the effects of ginsenosides and typical inhibitors on transporter activity, aliquots (100 μL) of HBSS containing the probe substrate and ginsenosides or typical inhibitors were added to the cells after aspirating pre-incubated HBSS. The concentrations and probe substrates were as follows: 0.1 μM [^3H]MPP^+ for OCT1 and OCT2, 0.1 μM [^3H]PAH for OAT1, 0.1 μM [^3H]ES for OAT3 and OATP1B1, and 0.1 μM [^3H]EG for OATP1B3. […] Then the uptake of probe substrates into HEK293-mock cells and HEK293-OCT1, -OCT2, -OAT1, -OAT3, -OATP1B1, and -OATP1B3 cells in the presence and absence of typical inhibitor or each ginsenoside with previously described concentration range was measured for 5 min. Immediately after placing the plates on ice, the cells were washed three times with 100 μL of ice-cold HBSS, followed by lysing with 50 μL of 10% SDS solution and mixing with 150 μL of Optiphase cocktail solution (Perkin Elmer Inc., Boston, MA, USA). The radioactivity of the probe substrates in the cells was determined using a liquid scintillation counter.
(§4) In the inhibition studies, the uptake rate of substrate by HEK293 cells overexpressing the respective transporters was used as the control (100%) and the uptake rate of substrates in the presence of typical inhibitors or ginsenosides expressed as a percentage of the control. The inhibition data were fitted to an inhibitory effect model using Sigma plot (version 10.0; Systat Software Inc., San Jose, CA, USA). IC50 value indicated the half-maximal inhibitory concentration of the inhibitor.

OCT1 = target: T2, OCT1 (Homo sapiens, UniProt O15245); experiment: Inhibition of OCT1-mediated [3H]MPP+ uptake in HEK293-OCT1 cells
T2 sequence (O15245 1-554): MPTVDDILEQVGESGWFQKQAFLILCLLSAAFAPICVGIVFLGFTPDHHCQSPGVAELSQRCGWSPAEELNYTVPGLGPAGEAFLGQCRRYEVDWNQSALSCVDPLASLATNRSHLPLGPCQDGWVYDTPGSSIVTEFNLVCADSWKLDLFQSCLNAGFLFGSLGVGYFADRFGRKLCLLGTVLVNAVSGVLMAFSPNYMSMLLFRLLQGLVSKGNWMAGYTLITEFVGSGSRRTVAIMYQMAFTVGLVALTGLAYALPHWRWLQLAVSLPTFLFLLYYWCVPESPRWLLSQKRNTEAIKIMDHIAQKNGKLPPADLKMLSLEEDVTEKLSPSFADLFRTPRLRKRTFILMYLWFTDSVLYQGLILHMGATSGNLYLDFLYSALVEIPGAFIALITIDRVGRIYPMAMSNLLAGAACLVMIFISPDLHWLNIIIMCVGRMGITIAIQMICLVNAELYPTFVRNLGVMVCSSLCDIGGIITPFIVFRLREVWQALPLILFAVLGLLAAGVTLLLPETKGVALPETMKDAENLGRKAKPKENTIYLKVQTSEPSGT
Experimental: as §1, §2, §3, §4

OAT3 = target: T3, OAT3 (Homo sapiens, UniProt Q8TCC7); experiment: Inhibition of OAT3-mediated [3H]ES uptake in HEK293-OAT3 cells
T3 sequence (Q8TCC7 1-542): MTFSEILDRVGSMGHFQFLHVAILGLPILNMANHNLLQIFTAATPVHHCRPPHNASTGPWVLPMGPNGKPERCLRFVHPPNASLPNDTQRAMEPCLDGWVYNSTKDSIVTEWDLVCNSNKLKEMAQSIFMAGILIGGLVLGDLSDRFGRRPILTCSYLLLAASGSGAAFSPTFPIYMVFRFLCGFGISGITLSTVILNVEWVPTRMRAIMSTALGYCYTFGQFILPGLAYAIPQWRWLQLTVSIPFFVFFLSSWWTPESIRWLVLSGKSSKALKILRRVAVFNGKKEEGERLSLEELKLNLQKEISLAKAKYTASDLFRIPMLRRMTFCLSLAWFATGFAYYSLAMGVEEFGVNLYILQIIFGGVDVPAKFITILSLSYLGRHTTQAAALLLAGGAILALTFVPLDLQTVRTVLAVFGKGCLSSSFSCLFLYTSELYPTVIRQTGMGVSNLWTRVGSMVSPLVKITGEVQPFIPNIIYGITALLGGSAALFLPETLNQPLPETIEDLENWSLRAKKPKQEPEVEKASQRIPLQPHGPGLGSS
Experimental: as §1, §2, §3, §4

[1] = HEK293-OATP1B3, 0.1 μM [3H]EG uptake, 5 min
[2] = read-out: IC50 OATP1B3, HEK293-OATP1B3, 0.1 μM [3H]EG uptake, 5 min
[3] = read-out: IC50 OCT1, HEK293-OCT1, 0.1 μM [3H]MPP+ uptake, 5 min
[4] = read-out: IC50 OAT3, HEK293-OAT3, 0.1 μM [3H]ES uptake, 5 min

Row | Compound | IC50 (OATP1B3) [µM] | IC50 (OCT1) [µM] | IC50 (OAT3) [µM] | IC50 OATP1B3 (OATP1B3; [1]) | IC50 (OATP1B3; [2]) [µM] | IC50 (OCT1; [3]) [µM] | IC50 (OAT3; [4]) [µM]
1 | CC(C)=CCC[C@](C)(O)[C@H]1CC[C@]2(C)[C@@H]1[C@H](O)C[C@@H]1[C@@]3(C)CC[C@H](O[C@@H]4O[C@H](CO)[C@@H](O)[C@H](O)[C@H]4O)C(C)(C)[C@@H]3CC[C@]12C [Rh2, ginsenoside Rh2] | 30.8 | > 100 | > 100 |  |  |  | 
2 | CC(C)=CCC[C@](C)(O[C@@H]1O[C@H](CO)[C@@H](O)[C@H](O)[C@H]1O)[C@H]1CC[C@]2(C)[C@@H]1[C@H](O)C[C@@H]1[C@@]3(C)CC[C@H](O)C(C)(C)[C@@H]3CC[C@]12C [Compound K, compound K] |  |  |  |  | 8.25 | > 100 | > 100
3 | CC(C)=CCC[C@](C)(O)[C@H]1CC[C@]2(C)[C@@H]1[C@H](O)C[C@@H]1[C@@]3(C)CC[C@H](O)C(C)(C)[C@@H]3[C@@H](O[C@@H]3O[C@H](CO)[C@@H](O)[C@H](O)[C@H]3O)C[C@]12C [Rh1, ginsenoside Rh1] | > 100 | > 100 | > 100 | did not inhibit |  |  | 
4 | CC(C)=CCC[C@](C)(O[C@@H]1O[C@H](CO[C@@H]2O[C@H](CO)[C@@H](O)[C@H](O)[C@H]2O)[C@@H](O)[C@H](O)[C@H]1O)[C@H]1CC[C@]2(C)[C@@H]1[C@H](O)C[C@@H]1[C@@]3(C)CC[C@H](O[C@@H]4O[C@H](CO)[C@@H](O)[C@H](O)[C@H]4O[C@@H]4O[C@H](CO)[C@@H](O)[C@H](O)[C@H]4O)C(C)(C)[C@@H]3CC[C@]12C [Rb1, ginsenoside Rb1] | 2.28 | > 100 | > 100 |  |  |  | 
5 | CC(C)=CCC[C@](C)(O)[C@H]1CC[C@]2(C)[C@@H]1[C@H](O)C[C@@H]1[C@@]3(C)CC[C@H](O)C(C)(C)[C@@H]3[C@@H](O)C[C@]12C [PPT, protopanaxatriol] |  |  |  |  | 20.3 | > 100 | > 100
6 | CC(C)=CCCC(C)(O)[C@H]1CC[C@]2(C)[C@@H]1[C@H](O)C[C@@H]1[C@@]3(C)CC[C@H](O)C(C)(C)[C@@H]3CC[C@]12C (stereo in doubt) [PPD, protopanaxadiol] |  |  |  |  | > 100 | > 100 | > 100
7 | CC(C)=CCC[C@](C)(O)[C@H]1CC[C@]2(C)[C@@H]1[C@H](O)C[C@@H]1[C@@]3(C)CC[C@H](O[C@@H]4O[C@H](CO)[C@@H](O)[C@H](O)[C@H]4O[C@@H]4O[C@H](CO)[C@@H](O)[C@H](O)[C@H]4O)C(C)(C)[C@@H]3CC[C@]12C [Rg3, ginsenoside Rg3] |  |  |  |  | 5.13 | > 100 | > 100
8 | CC(C)=CCC[C@](C)(O[C@@H]1O[C@H](CO[C@@H]2OC[C@H](O)[C@H](O)[C@H]2O)[C@@H](O)[C@H](O)[C@H]1O)[C@H]1CC[C@]2(C)[C@@H]1[C@H](O)C[C@@H]1[C@@]3(C)CC[C@H](O[C@@H]4O[C@H](CO)[C@@H](O)[C@H](O)[C@H]4O[C@@H]4O[C@H](CO)[C@@H](O)[C@H](O)[C@H]4O)C(C)(C)[C@@H]3CC[C@]12C [Rb2, ginsenoside Rb2] | 1.76 | > 100 | > 100 |  |  |  | 

The next lines start with results.

Row | IC50 (OATP1B3) [µM] | IC50 (OCT1) [µM] | IC50 (OAT3) [µM] | IC50 OATP1B3 (OATP1B3; [1]) | Compound | IC50 (OATP1B3; [2]) [µM] | IC50 (OCT1; [3]) [µM] | IC50 (OAT3; [4]) [µM]
9 | 25.8 | > 100 | > 100 |  | CC(C)=CCC[C@](C)(O[C@@H]1O[C@H](CO)[C@@H](O)[C@H](O)[C@H]1O)[C@H]1CC[C@]2(C)[C@@H]1[C@H](O)C[C@@H]1[C@@]3(C)CC[C@H](O[C@@H]4O[C@H](CO)[C@@H](O)[C@H](O)[C@H]4O[C@@H]4O[C@H](CO)[C@@H](O)[C@H](O)[C@H]4O)C(C)(C)[C@@H]3CC[C@]12C [Rd, ginsenoside Rd] |  |  | 
10 | > 100 | > 100 | > 100 | did not inhibit | CC(C)=CCC[C@](C)(O[C@@H]1O[C@H](CO)[C@@H](O)[C@H](O)[C@H]1O)[C@H]1CC[C@]2(C)[C@@H]1[C@H](O)C[C@@H]1[C@@]3(C)CC[C@H](O)C(C)(C)[C@@H]3[C@@H](O[C@@H]3O[C@H](CO)[C@@H](O)[C@H](O)[C@H]3O)C[C@]12C [Rg1, ginsenoside Rg1] |  |  | 
11 | > 100 | > 100 | > 100 | did not inhibit | CC(C)=CCC[C@](C)(O[C@@H]1O[C@H](CO)[C@@H](O)[C@H](O)[C@H]1O)[C@H]1CC[C@]2(C)[C@@H]1[C@H](O)C[C@@H]1[C@@]3(C)CC[C@H](O)C(C)(C)[C@@H]3[C@@H](O[C@@H]3O[C@H](CO)[C@@H](O)[C@H](O)[C@H]3O[C@@H]3O[C@@H](C)[C@H](O)[C@@H](O)[C@H]3O)C[C@]12C [Re, ginsenoside Re] |  |  | 
12 | 1.36 | > 100 | > 100 |  | CC(C)=CCC[C@](C)(O[C@@H]1O[C@H](CO[C@@H]2O[C@@H](CO)[C@H](O)[C@H]2O)[C@@H](O)[C@H](O)[C@H]1O)[C@H]1CC[C@]2(C)[C@@H]1[C@H](O)C[C@@H]1[C@@]3(C)CC[C@H](O[C@@H]4O[C@H](CO)[C@@H](O)[C@H](O)[C@H]4O[C@@H]4O[C@H](CO)[C@@H](O)[C@H](O)[C@H]4O)C(C)(C)[C@@H]3CC[C@]12C [Rc, ginsenoside Rc] |  |  | 
